What was measured:
[1] = test system: ZEAMX (Corn, Field); test: Postemergence herbicidal evaluation; format: in vivo, Zea mays; conditions: for ZEAMX herbicidal rating: postemergence
Outline: (§1)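 Compound is applied as a foliar spray to seedlings about two weeks old, formulated in equal parts acetone and water with 0.5% TWEEN 20 and delivered at 40 psi to give about 0.0156–0.500 kg per hectare. Injury is rated visually 0–9 after four to five weeks.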

[2] = test system: SETVI (Foxtail, Green); test: Preemergence herbicidal evaluation; format: in vivo, Setaria viridis; conditions: rated 4-5 weeks after treatment
Outline: (§2)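 Each species is sown separately in potting soil over roughly an inch of soil before any emergence. The soil surface then receives an aqueous acetone spray delivering about 0.0156 to 0.500 kg/ha of compound. After four to five weeks, injury is scored from 0 to 9 relative to a control.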

[3] = test system: ECHORC (Watergrass (Calif.)); test: Postemergence weed control under flooded paddy conditions; format: in vivo, Echinochloa oryzoides; conditions: postemergence weeds, 3-4 weeks after treatment
Outline: (§3)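 Injury ratings (0–9 scale covering stand, vigor, malformation, size, chlorosis and overall appearance versus control) were made three to four weeks after treatment. Test material, about 0.0313 to 0.500 kg/ha a.i. in 50/50 v/v aqueous/acetone, was added to flood water 1.5 to 3 cm deep over 3 to 5 cm weeds and 1.5 to 2.5 leaf rice.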

[4] = test system: CYPSE (Flatsedge); test: as above; format: in vivo, Cyperus serotinus; conditions: postemergence weeds, 3-4 weeks after treatment
Outline: as §3

[5] = test system: SETVI (Foxtail, Green); test: Postemergence herbicidal evaluation; format: in vivo, Setaria viridis; conditions: for SETVI herbicidal rating: postemergence
Outline: as §1

[6] = test system: AMBEL (Ragweed, Common); test: Preemergence herbicidal evaluation; format: in vivo, Ambrosia artemisifolia; conditions: rated 4-5 weeks after treatment
Outline: as §2

[7] = test system: SAGPY (Arrowhead (Pygmaea)); test: Postemergence weed control under flooded paddy conditions; format: in vivo, Sagittaria pygmaea; conditions: postemergence weeds, 3-4 weeks after treatment
Outline: as §3

[8] = test system: GLXMAW (Soybean, Williams); test: Postemergence herbicidal evaluation; format: in vivo, Glycine max, (L.) Merr. cv Williams; conditions: for GLXMAW herbicidal rating: postemergence
Outline: as §1

[9] = test system: CYPIR (Rice Flatsedge); test: Preemergence weed control under flooded paddy conditions; format: in vivo, Cyperus iria; conditions: rated 3-4 weeks after treatment
Outline: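 Visual injury scored 0-9 against control three to four weeks post-treatment, greenhouse-grown. Application: acetone/water (50/50) solutions dosed directly into flood water (1.5-3 cm over silt loam, planted top 0.5 cm), roughly 0.0313 to 0.500 kg/ha active ingredient.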

[10] = test system: CHEAL (Lambsquarters, Common); test: Postemergence herbicidal evaluation; format: in vivo, Chenopodium album; conditions: for CHEAL herbicidal rating: postemergence
Outline: as §1

[11] = test system: ABUTH (Velvetleaf); test: Postemergence herbicidal evaluation; format: in vivo, Abutilon theophrasti; conditions: for ABUTH herbicidal rating: postemergence
Outline: as §1

[12] = test system: ORYSAT (Rice, Tebonnet); test: Postemergence herbicidal evaluation; format: in vivo, Oryza sativa, (L.) Tebonnet; conditions: for ORYSAT herbicidal rating: postemergence
Outline: as §1

[13] = test system: TRZAWR (Wheat, Winter, cv Riband); test: Postemergence herbicidal evaluation; format: in vivo, Triticum aestivum; conditions: for TRZAWR herbicidal rating: postemergence
Outline: as §1

`C=CCN1C(=O)CSC1=Nc1cc(N2C(=O)C3=C(CCCC3)C2=O)c(F)cc1Cl` [Compound 2, N-{5-[(3-allyl-4-oxo-2-thiazolidinylidene)amino]-4-chloro-2-fluorophenyl}-1-cyclohexene-1,2-dicarboximide] showed a ZEAMX herbicidal rating ([1]; rate 0.0157 kg/ha) of 3.0, a ZEAMX herbicidal rating ([1]; rate 0.0313 kg/ha) of 3.0 and a ZEAMX herbicidal rating ([1]; rate 0.0625 kg/ha) of 3.0. For the same molecule, the ZEAMX herbicidal rating ([1]; rate 0.1250 kg/ha) was 3.5, the ZEAMX herbicidal rating ([1]; rate 0.2500 kg/ha) was 3.5 and the ZEAMX herbicidal rating ([1]; rate 0.5000 kg/ha) was 4.0. For the same molecule, the “SETVI preemergence herbicidal rating” value ([2]; rate 0.0313 kg/ha) was 0.0, the “SETVI preemergence herbicidal rating” value ([2]; rate 0.0625 kg/ha) was 0.0 and the “SETVI preemergence herbicidal rating” value ([2]; rate 0.1250 kg/ha) was 6.0. For the same molecule, the “SETVI preemergence herbicidal rating” value ([2]; rate 0.2500 kg/ha) was 6.0, the “SETVI preemergence herbicidal rating” value ([2]; rate 0.5000 kg/ha) was 9.0 and the “Herbicidal rating ECHORC” value ([3]; rate 0.0313 kg/ha) was 1.0. For the same molecule, the “Herbicidal rating ECHORC” value ([3]; rate 0.0625 kg/ha) was 1.0, the “Herbicidal rating ECHORC” value ([3]; rate 0.1250 kg/ha) was 3.5 and the “Herbicidal rating ECHORC” value ([3]; rate 0.2500 kg/ha) was 4.0. The “Herbicidal rating ECHORC” value ([3]; rate 0.5000 kg/ha) was 4.5, the “Herbicidal rating CYPSE” value ([4]; rate 0.0313 kg/ha) was 0.0 and the “Herbicidal rating CYPSE” value ([4]; rate 0.0625 kg/ha) was 0.0. The “Herbicidal rating CYPSE” value ([4]; rate 0.1250 kg/ha) was 0.0, the “Herbicidal rating CYPSE” value ([4]; rate 0.2500 kg/ha) was 0.0 and the “Herbicidal rating CYPSE” value ([4]; rate 0.5000 kg/ha) was 0.0. The SETVI herbicidal rating ([5]; rate 0.0157 kg/ha) was 0.0, the SETVI herbicidal rating ([5]; rate 0.0313 kg/ha) was 0.0 and the SETVI herbicidal rating ([5]; rate 0.1250 kg/ha) was 0.0. For the same molecule, the SETVI herbicidal rating ([5]; rate 0.2500 kg/ha) was 0.0, the SETVI herbicidal rating ([5]; rate 0.5000 kg/ha) was 0.0 and the “AMBEL preemergence herbicidal rating” value ([6]; rate 0.0313 kg/ha) was 0.0. For the same molecule, the “AMBEL preemergence herbicidal rating” value ([6]; rate 0.0625 kg/ha) was 0.0, the “AMBEL preemergence herbicidal rating” value ([6]; rate 0.1250 kg/ha) was 0.0 and the “AMBEL preemergence herbicidal rating” value ([6]; rate 0.2500 kg/ha) was 0.0. The “AMBEL preemergence herbicidal rating” value ([6]; rate 0.5000 kg/ha) was 0.0, the “Herbicidal rating SAGPY” value ([7]; rate 0.0313 kg/ha) was 0.0 and the “Herbicidal rating SAGPY” value ([7]; rate 0.0625 kg/ha) was 0.0. For the same molecule, the “Herbicidal rating SAGPY” value ([7]; rate 0.1250 kg/ha) was 0.0, the “Herbicidal rating SAGPY” value ([7]; rate 0.2500 kg/ha) was 0.0 and the “Herbicidal rating SAGPY” value ([7]; rate 0.5000 kg/ha) was 1.0. The GLXMAW herbicidal rating ([8]; rate 0.0157 kg/ha) was 3.5, the GLXMAW herbicidal rating ([8]; rate 0.0313 kg/ha) was 3.5 and the GLXMAW herbicidal rating ([8]; rate 0.0625 kg/ha) was 3.5. The GLXMAW herbicidal rating ([8]; rate 0.1250 kg/ha) was 3.0, the GLXMAW herbicidal rating ([8]; rate 0.2500 kg/ha) was 3.0 and the GLXMAW herbicidal rating ([8]; rate 0.5000 kg/ha) was 3.0. For the same molecule, the “Herbicidal rating CYPIR” value ([9]; 0.0313 kg/ha) was 0.0, the “Herbicidal rating CYPIR” value ([9]; 0.0625 kg/ha) was 0.0 and the “Herbicidal rating CYPIR” value ([9]; 0.1250 kg/ha) was 0.0. For the same molecule, the “Herbicidal rating CYPIR” value ([9]; 0.2500 kg/ha) was 0.0, the “Herbicidal rating CYPIR” value ([9]; 0.5000 kg/ha) was 1.0 and the CHEAL herbicidal rating ([10]; rate 0.0157 kg/ha) was 7.0. The CHEAL herbicidal rating ([10]; rate 0.0313 kg/ha) was 6.0, the CHEAL herbicidal rating ([10]; rate 0.0625 kg/ha) was 8.0 and the CHEAL herbicidal rating ([10]; rate 0.1250 kg/ha) was 9.0. The CHEAL herbicidal rating ([10]; rate 0.2500 kg/ha) was 7.0, the CHEAL herbicidal rating ([10]; rate 0.5000 kg/ha) was 9.0 and the ABUTH herbicidal rating ([11]; rate 0.0157 kg/ha) was 0.0. For the same molecule, the ABUTH herbicidal rating ([11]; rate 0.0313 kg/ha) was 4.0, the ABUTH herbicidal rating ([11]; rate 0.0625 kg/ha) was 9.0 and the ABUTH herbicidal rating ([11]; rate 0.1250 kg/ha) was 9.0. It also gave an ABUTH herbicidal rating ([11]; rate 0.2500 kg/ha) of 9.0, an ABUTH herbicidal rating ([11]; rate 0.5000 kg/ha) of 9.0 and an ORYSAT herbicidal rating ([12]; rate 0.0157 kg/ha) of 3.0. For the same molecule, the ORYSAT herbicidal rating ([12]; rate 0.0313 kg/ha) was 3.0, the ORYSAT herbicidal rating ([12]; rate 0.0625 kg/ha) was 3.0 and the ORYSAT herbicidal rating ([12]; rate 0.1250 kg/ha) was 3.5. It also gave an ORYSAT herbicidal rating ([12]; rate 0.2500 kg/ha) of 3.5, an ORYSAT herbicidal rating ([12]; rate 0.5000 kg/ha) of 3.0 and a TRZAWR herbicidal rating ([13]; rate 0.0157 kg/ha) of 1.5. The TRZAWR herbicidal rating ([13]; rate 0.0313 kg/ha) was 2.5, the TRZAWR herbicidal rating ([13]; rate 0.0625 kg/ha) was 3.0 and the TRZAWR herbicidal rating ([13]; rate 0.1250 kg/ha) was 2.5. For the same molecule, the TRZAWR herbicidal rating ([13]; rate 0.2500 kg/ha) was 2.5 and the TRZAWR herbicidal rating ([13]; rate 0.5000 kg/ha) was 3.0.
“2-{{2-Chloro-5-[3,6-dihydro-3-methyl-2,6-dioxo-4-(trifluoromethyl)-1(2H)-pyrimidinyl]-4-fluoro-phenyl}imino}-4-oxo-3,5-thiazolidenediacetic acid, 3-ethyl (2-propynyl) ester, (2:1) mixture with di-2-propynyl ester [Compound 58]” was tested, and the “Postemergence herbicidal rating ZEAMX” value ([1]; Rate 0.0158 kg/ha) was 7.0, the “Postemergence herbicidal rating ZEAMX” value ([1]; Rate 0.0315 kg/ha) was 7.0 and the “Postemergence herbicidal rating ZEAMX” value ([1]; Rate 0.0630 kg/ha) was 8.0. For the same molecule, the “Herbicidal rating ECHORC” value ([3]; rate 0.0313 kg/ha) was 7.0, the “Herbicidal rating ECHORC” value ([3]; rate 0.0625 kg/ha) was 7.0 and the “Herbicidal rating ECHORC” value ([3]; rate 0.1250 kg/ha) was 7.0. For the same molecule, the “Herbicidal rating ECHORC” value ([3]; rate 0.2500 kg/ha) was 9.0, the “Herbicidal rating CYPSE” value ([4]; rate 0.0313 kg/ha) was 5.0 and the “Herbicidal rating CYPSE” value ([4]; rate 0.0625 kg/ha) was 5.0. For the same molecule, the “Herbicidal rating CYPSE” value ([4]; rate 0.1250 kg/ha) was 5.0, the “Herbicidal rating CYPSE” value ([4]; rate 0.2500 kg/ha) was 5.0 and the “Postemergence herbicidal rating SETVI” value ([5]; Rate 0.0158 kg/ha) was 9.0. For the same molecule, the “Postemergence herbicidal rating SETVI” value ([5]; Rate 0.0315 kg/ha) was 9.0, the “Postemergence herbicidal rating SETVI” value ([5]; Rate 0.0630 kg/ha) was 9.0 and the “Herbicidal rating SAGPY” value ([7]; rate 0.0313 kg/ha) was 0.0. For the same molecule, the “Herbicidal rating SAGPY” value ([7]; rate 0.0625 kg/ha) was 0.0, the “Herbicidal rating SAGPY” value ([7]; rate 0.1250 kg/ha) was 0.0 and the “Herbicidal rating SAGPY” value ([7]; rate 0.2500 kg/ha) was 4.0. For the same molecule, the “Postemergence herbicidal rating GLXMAW” value ([8]; Rate 0.0158 kg/ha) was 7.0, the “Postemergence herbicidal rating GLXMAW” value ([8]; Rate 0.0315 kg/ha) was 7.0 and the “Postemergence herbicidal rating GLXMAW” value ([8]; Rate 0.0630 kg/ha) was 8.5. For the same molecule, the “CYPIR herbicidal effect rating” value ([9]; 0.0313 kg/ha) was 0.0, the “Herbicidal rating CYPIR” value ([9]; 0.0625 kg/ha) was 0.0 and the “Herbicidal rating CYPIR” value ([9]; 0.1250 kg/ha) was 2.0. For the same molecule, the “Herbicidal rating CYPIR” value ([9]; 0.2500 kg/ha) was 3.0, the “Postemergence herbicidal rating CHEAL” value ([10]; Rate 0.0158 kg/ha) was 9.0 and the “Postemergence herbicidal rating CHEAL” value ([10]; Rate 0.0315 kg/ha) was 9.0. For the same molecule, the “Postemergence herbicidal rating CHEAL” value ([10]; Rate 0.0630 kg/ha) was 9.0, the “Postemergence herbicidal rating ABUTH” value ([11]; Rate 0.0158 kg/ha) was 9.0 and the “Postemergence herbicidal rating ABUTH” value ([11]; Rate 0.0315 kg/ha) was 9.0. The “Postemergence herbicidal rating ABUTH” value ([11]; Rate 0.0630 kg/ha) was 9.0, the “Postemergence herbicidal rating ORYSAT” value ([12]; Rate 0.0158 kg/ha) was 5.5 and the “Postemergence herbicidal rating ORYSAT” value ([12]; Rate 0.0315 kg/ha) was 5.5. The “Postemergence herbicidal rating ORYSAT” value ([12]; Rate 0.0630 kg/ha) was 6.0, the “Postemergence herbicidal rating TRZAWR” value ([13]; Rate 0.0158 kg/ha) was 5.0 and the “Postemergence herbicidal rating TRZAWR” value ([13]; Rate 0.0315 kg/ha) was 5.0. The “Postemergence herbicidal rating TRZAWR” value ([13]; Rate 0.0630 kg/ha) was 7.5.

Reference: patent US20020137929A1, “1 - (3-heterocyclylphenyl) isothiourea, -isourea, -guanidine and -amidine herbicidal agents” (Intellectual Property Department, BASF Aktiengesellschaft, priority 1998, published 2002)
